In patent US20120027842A1, “TOPICAL FORMULATIONS OF FLAP INHIBITORS FOR ADMINISTRATION TO AN EYE” (Amira Pharmaceuticals, Inc., priority 2008, published 2012):

Tests used:
[1] = Solubility in 10% beta-hydroxypropyl cyclodextrin (BHPC) in water; format: physicochemical; conditions: Na salt; at 1 mg/mL
Experimental: In one aspect, aqueous ophthalmic solutions that include a FLAP inhibitor compounds were prepared by dissolving a FLAP inhibitor compound in 10% beta-hydroxypropyl cyclodextrin (BHPC) in water. Using this formulation, the following compounds were soluble at 1 mg/mL: Compound A (Na salt), Compound B (Na salt), Compound C (Na salt), Compound I (Na salt), Compound J (Na salt), Compound G (Na salt).

[2] = tested on: RSV (Long strain, serotype A); assay: Mouse model of RSV-infected eye: ocular pathology; format: in vivo, BALB/c mice
Experimental: (§1) A mouse model of respiratory syncytial virus (RSV) eye infection is used to test the effects of ocular application of a FLAP inhibitor compound on RSV-induced ocular immunopathology (Bitko V, et al., J. Virol. 2007; 81(2):783-90; Bitko V, et al., Nat. Med. 2005; 11(1):50-5). Each mouse eye is topically treated with 60 ng of FLAP inhibitor compound or vehicle (sterile saline) in a volume of 2 μl. The FLAP inhibitor compound is instilled 40 min after virus inoculum and then once daily over the entire duration of the protocol (14 days).
Instillation of virus and inhibitor in the eye. Female BALB/c mice, 6 to 8 weeks old, were purchased from Charles River Laboratories. RSV (Long strain, serotype A) was grown on HEp-2 cells and purified on sucrose layers to a concentration of 10^11 PFU (Bitko et al., Nat. Med. 11:50-55, 2005). […]
Ocular pathology. Ocular disease was evaluated with a slit lamp biomicroscope as described previously (Bitko V, et al., J. Virol. 2007; 81(2):783-90) 15; Girgis et al., Invest. […] Pathology was scored on a scale of 0 to 5 as follows: 0=clear eye; 1=slight redness in the corners; 2=moderate redness and injection; 3=conjunctival and corneal injection with ciliary flush; 4=extensive injection, generally associated with some mucus; 5=most extensive injection, associated with mucus. Eyes were examined in a coded fashion with the reader unaware of the treatment given. […]

CysLTs = assay: Mouse model of RSV-infected eye: CysLT measurements in eye homogenates (EIA); format: in vivo, BALB/c mice; conditions: topical treatment of RSV-infected mouse eyes, 60 ng/2 μL daily
Experimental: as §1
(§2) Instillation of virus and inhibitor in the eye. Female BALB/c mice, 6 to 8 weeks old, were purchased from Charles River Laboratories. RSV (Long strain, serotype A) was grown on HEp-2 cells and purified on sucrose layers to a concentration of 10^11 PFU (Bitko et al., Nat. Med. 11:50-55, 2005). Dilutions were done in phosphate-buffered saline (PBS) immediately before use to a final concentration of 10^4 PFU/2 μL as needed. A similarly diluted sucrose solution was used in sham-infected control mice. Mice were anesthetized by intraperitoneal injection of pentobarbital (50 mg/kg), and virus in 2 μL PBS was dropped into the corneal surface and massaged in with closed eyelids. The day of the inoculation was considered day 0. […]

RSV = assay: Mouse model of RSV-infected eye: RSV viral load, RNA and protein in eye and lung; format: in vivo, BALB/c mice; conditions: ocular application to RSV-infected mice
Experimental: as §1
Instillation of virus and inhibitor in the eye. Female BALB/c mice, 6 to 8 weeks old, were purchased from Charles River Laboratories. RSV (Long strain, serotype A) was grown on HEp-2 cells and purified on sucrose layers to a concentration of 10^11 PFU (Bitko et al., Nat. Med. 11:50-55, 2005). Dilutions were done in phosphate-buffered saline (PBS) immediately before use to a final concentration of 10^4 PFU/2 μL as needed. A similarly diluted sucrose solution was used in sham-infected control mice. Mice were anesthetized by intraperitoneal injection of pentobarbital (50 mg/kg), and virus in 2 μL PBS was dropped into the corneal surface and massaged in with closed eyelids. The day of the inoculation was considered day 0. The FLAP inhibitor Compound C was diluted in PBS to 60 ng/2 μL just prior to application of 2 μL 40 minutes after the RSV inoculation on day 0 and then each day.
RSV RNA and protein: RSV is assayed in the ocular tissue on various days using both Western blot and viable virus assay (plaque forming unit; pfu) as described before. […] is quantified by RT-PCR. RSV RNA and protein were measured in the eye and lung (Urnowey et al., BMC Microbiol. 6:26, 2006).
Compound C reduced RSV in the lung.
Infection of an eye eventually transmits into the lung, causing a standard respiratory infection. […] Thus, it is of interest to monitor the lung infection to determine if the ocular application of the FLAP inhibitor compound has any effect on virus replication and quantity of virus in the lung. […]

IL-4 = assay: Mouse model of RSV-infected eye: Interleukin-4 (IL-4) measurements in eye homogenates; format: in vivo, BALB/c mice; conditions: topical treatment of RSV-infected mouse eyes, 60 ng/2 μL daily
Experimental: as §1, §2

[3] = set-up: species or system BALB/c mice; conditions: mouse, in vivo, 10 mg/kg

## COc1cnc(-c2ccc(Cn3c(CC(C)(C)C(=O)O)c(SC(C)(C)C)c4cc(OCc5ccc(C)cn5)ccc43)cc2)nc1 [Compound A, 3-[3-tert-Butylsulfanyl-1-[4-(5-methoxy-pyrimidin-2-yl)-benzyl]-5-(5-methyl-pyridin-2-ylmethoxy)-1H-indol-2-yl]-2,2-dimethyl-propionic acid]
[1]
  solubility in 10% beta-hydroxypropyl cyclodextrin (BHPC) in water: soluble

## COc1cnc(-c2ccc(Cn3c(CC(C)(C)C(=O)O)c(SC(C)(C)C)c4cc(OCc5cnc(C)cn5)ccc43)cc2)nc1 [Compound B, 3-[3-tert-Butylsulfanyl-1-[4-(5-methoxy-pyrimidin-2-yl)-benzyl]-5-(5-methyl-pyrazin-2-ylmethoxy)-1H-indol-2-yl]-2,2-dimethyl-propionic acid]
[1]
  solubility in 10% beta-hydroxypropyl cyclodextrin (BHPC) in water: soluble

## COc1cnc(-c2ccc(Cn3c(CC(C)(C)C(=O)O)c(SC(C)(C)C)c4cc(OC[C@@H]5Cc6ccccc6N5C(C)=O)ccc43)cc2)nc1 [Compound C, 3-{5-((S)-1-Acetyl-2,3-dihydro-1H-indol-2-ylmethoxy)-3-tert-butylsulfanyl-1-[4-(5-methoxy-pyrimidin-2-yl)-benzyl]-1H-indol-2-yl}-2,2-dimethyl-propionic acid]
[2]; ocular application 60 ng/2 μL per eye daily, day 8
  gummy residue and mucin build up in infected eyes: clear of gummy residue and mucin build up
[2]; ocular application 60 ng/2 μL per eye, 40 min after RSV then daily, days 2-14 after RSV challenge
  RSV eye pathology score (scale of 0 to 5): reduces the pathology score across all observation days
CysLTs
  levels of CysLTs in eye homogenates: reduced
RSV
  RSV in the lung: reduced
  RSV mRNA or protein in the eye or the lung: did not increase
  viral load in the eye or the lung: did not increase
[1]
  solubility in 10% beta-hydroxypropyl cyclodextrin (BHPC) in water: soluble
IL-4
  levels of IL-4 in eye homogenates: reduced

## CC(C)(C)Sc1c(CC(C)(C)C(=O)O)n(Cc2ccc(-c3ccc(F)cn3)cc2)c2ccc(OCc3ccc4ccccc4n3)cc12 [Compound F, 3-[3-tert-Butylsulfanyl-1-[4-(5-fluoro-pyridin-2-yl)-benzyl]-5-(quinolin-2-ylmethoxy)-1H-indol-2-yl]-2,2-dimethyl-propionic acid]
[1]
  solubility in 10% beta-hydroxypropyl cyclodextrin (BHPC) in water: formed a cloudy solution

## CCC(CC)(Cc1c(SC(C)(C)C)c2cc(OCc3ccc(C)cn3)ccc2n1Cc1ccc(-c2ncc(OC)cn2)cc1)C(=O)O [Compound G, 2-[3-tert-Butylsulfanyl-1-[4-(5-methoxy-pyrimidin-2-yl)-benzyl]-5-(5-methyl-pyridin-2-ylmethoxy)-1H-indol-2-ylmethyl]-2-ethyl-butyric acid]
[1]
  solubility in 10% beta-hydroxypropyl cyclodextrin (BHPC) in water: soluble

## CC(=O)N1CCC[C@H]1COc1ccc2c(c1)c(SC(C)(C)C)c(CC(C)(C)C(=O)O)n2Cc1ccc(Cl)cc1 [Compound I, 3-[5-((S)-1-Acetyl-pyrrolidin-2-ylmethoxy)-3-tert-butylsulfanyl-1-(4-chloro-benzyl)-1H-indol-2-yl]-2,2-dimethyl-propionic acid]
[1]
  solubility in 10% beta-hydroxypropyl cyclodextrin (BHPC) in water: soluble

## CC(C)(C)Sc1c(CC(C)(C)C(=O)O)n(Cc2ccc(-c3ccc(F)cn3)cc2)c2ccc(OCc3ccccn3)cc12 [Compound J, 3-[3-tert-butylsulfanyl-1-[4-(5-fluoro-pyridin-2-yl)-benzyl]-5-(pyridin-2-ylmethoxy)-1H-indol-2-yl]-2,2-dimethyl-propionic acid]
[1]
  solubility in 10% beta-hydroxypropyl cyclodextrin (BHPC) in water: soluble

## CCN(Cc1cc(C(F)(F)F)ccc1-c1cncc(CC(=O)O)c1)C(=O)OCc1ccccc1 [DP2 receptor antagonist]
[3]
  Plasma concentration @ trough: <10 nM
